Test results as given in PubChem BioAssay (NCI).
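Dose response: 5 concentrations. Exposure: 48 h. Format: 96-well plates. Endpoint: linear interpolation; highest concentration if not reached. The concentration for 50% growth inhibition is given as GI50. At the TGI there is no net growth.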

How the values were obtained:
Experiment in all cases: growth of human tumour cells (NCI), 48 h
[1] = system: 786-0 renal
[2] = system: A498 renal
[3] = system: A549 NSCLC
[4] = system: ACHN renal
[5] = system: BT-549 breast
[6] = system: CCRF-CEM leukemia
[7] = system: COLO 205 colon
[8] = system: DU-145 prostate
[9] = system: EKVX NSCLC
[10] = system: HCC-2998 colon
[11] = system: HCT-116 colon
[12] = system: HCT-15 colon
[13] = system: HL-60(TB) leukemia
[14] = system: HOP-62 NSCLC
[15] = system: HOP-92 NSCLC
[16] = system: HS 578T breast
[17] = system: HT29 colon
[18] = system: IGROV1 ovarian
[19] = system: K-562 leukemia
[20] = system: KM12 colon
[21] = system: LOX IMVI melanoma
[22] = system: M14 melanoma
[23] = system: MALME-3M melanoma
[24] = system: MCF7 breast
[25] = system: MDA-MB-231 breast
[26] = system: MDA-MB-435
[27] = system: MOLT-4 leukemia
[28] = system: NCI-H226 lung
[29] = system: NCI-H23 lung
[30] = system: NCI-H460 lung
[31] = system: NCI-H522 lung
[32] = system: NCI/ADR-RES ovarian
[33] = system: OVCAR-3 ovarian
[34] = system: OVCAR-4 ovarian
[35] = system: OVCAR-5 ovarian
[36] = system: OVCAR-8 ovarian
[37] = system: PC-3 prostate
[38] = system: RPMI-8226 leukemia
[39] = system: RXF 393 renal
[40] = system: SF-268 CNS
[41] = system: SF-295 CNS
[42] = system: SF-539 CNS
[43] = system: SK-MEL-28 melanoma
[44] = system: SK-MEL-5 melanoma
[45] = system: SK-OV-3 ovarian
[46] = system: SN12C renal
[47] = system: SNB-19 CNS
[48] = system: SNB-75 CNS
[49] = system: SR leukemia
[50] = system: SW-620 colon
[51] = system: T-47D breast
[52] = system: TK-10 renal
[53] = system: U251 CNS
[54] = system: UACC-257 melanoma
[55] = system: UACC-62 melanoma
[56] = system: UO-31 renal
[57] = system: CAKI-1 renal
[58] = system: SK-MEL-2 melanoma
[59] = system: MDA-N

COc1cccc(NCC(=O)Nn2c(-c3ccccc3)nc3ccccc3c2=O)c1
TGI [1]: > 100 µM
TGI [2]: 85 µM
TGI [3]: > 100 µM
TGI [4]: > 100 µM
TGI [5]: > 100 µM
TGI [6]: > 100 µM
TGI [7]: > 100 µM
TGI [8]: > 100 µM
TGI [9]: > 100 µM
TGI [10]: > 100 µM
TGI [11]: > 100 µM
TGI [12]: > 100 µM
TGI [13]: > 100 µM
TGI [14]: > 100 µM
TGI [15]: > 100 µM
TGI [16]: > 100 µM
TGI [17]: > 100 µM
TGI [18]: > 100 µM
TGI [19]: > 100 µM
TGI [20]: > 100 µM
TGI [21]: > 100 µM
TGI [22]: > 100 µM
TGI [23]: > 100 µM
TGI [24]: > 100 µM
TGI [25]: > 100 µM
TGI [26]: > 100 µM
TGI [27]: > 100 µM
TGI [28]: > 100 µM
TGI [29]: > 100 µM
TGI [30]: > 100 µM
TGI [31]: > 100 µM
TGI [32]: > 100 µM
TGI [33]: > 100 µM
TGI [34]: > 100 µM
TGI [35]: > 100 µM
TGI [36]: > 100 µM
TGI [37]: > 100 µM
TGI [38]: > 100 µM
TGI [39]: > 100 µM
TGI [40]: > 100 µM
TGI [41]: > 100 µM
TGI [42]: > 100 µM
TGI [43]: > 100 µM
TGI [44]: > 100 µM
TGI [45]: > 100 µM
TGI [46]: > 100 µM
TGI [47]: > 100 µM
TGI [48]: > 100 µM
TGI [49]: > 100 µM
TGI [50]: > 100 µM
TGI [51]: > 100 µM
TGI [52]: > 100 µM
TGI [53]: > 100 µM
TGI [54]: > 100 µM
TGI [55]: > 100 µM
TGI [56]: > 100 µM

N#CC1C(=N)Cc2ccccc2-c2ccccc21 (configuration not stated)
GI50 [1]: 9.66 µM
TGI [1]: 35.2 µM
GI50 [2]: 2.78 µM
TGI [2]: 14 µM
GI50 [3]: 4.58 µM
TGI [3]: > 100 µM
GI50 [4]: 12.8 µM
TGI [4]: 82.5 µM
GI50 [5]: 8.64 µM
TGI [5]: 38.7 µM
GI50 [57]: 3.21 µM
TGI [57]: 24.2 µM
GI50 [6]: 4.42 µM
TGI [6]: > 100 µM
GI50 [7]: 3.82 µM
TGI [7]: 20.9 µM
GI50 [8]: 6.92 µM
TGI [8]: 49.7 µM
GI50 [9]: 4.37 µM
TGI [9]: > 100 µM
GI50 [10]: 9.96 µM
TGI [10]: 26 µM
GI50 [11]: 3.25 µM
TGI [11]: 15.3 µM
GI50 [13]: 3.23 µM
TGI [13]: 16.6 µM
GI50 [14]: 4.59 µM
TGI [14]: 56.2 µM
GI50 [15]: 10 µM
TGI [15]: 36.6 µM
GI50 [16]: 5.38 µM
TGI [16]: 65.3 µM
GI50 [17]: 4.1 µM
TGI [17]: 19.6 µM
GI50 [19]: 2.71 µM
TGI [19]: 89.4 µM
GI50 [20]: 3.43 µM
TGI [20]: 16.1 µM
GI50 [21]: 6.26 µM
TGI [21]: 33.5 µM
GI50 [22]: 2.74 µM
TGI [22]: 10.3 µM
GI50 [23]: 4.2 µM
TGI [23]: 27.4 µM
GI50 [24]: 4.2 µM
TGI [24]: 80.1 µM
GI50 [25]: 8.88 µM
TGI [25]: 35 µM
GI50 [26]: 1.2 µM
TGI [26]: 3.57 µM
GI50 [27]: 5 µM
TGI [27]: 43.4 µM
GI50 [28]: 11.4 µM
TGI [28]: > 100 µM
GI50 [29]: 11.2 µM
TGI [29]: 68.8 µM
GI50 [30]: 3.92 µM
TGI [30]: 18.3 µM
GI50 [31]: 5.72 µM
TGI [31]: 30.6 µM
GI50 [32]: 3.33 µM
TGI [32]: 28.9 µM
GI50 [33]: 3.6 µM
TGI [33]: 13 µM
GI50 [34]: 18 µM
TGI [34]: > 100 µM
GI50 [35]: 9.04 µM
TGI [35]: > 100 µM
GI50 [36]: 5.81 µM
TGI [36]: 41.1 µM
GI50 [37]: 12.7 µM
TGI [37]: > 100 µM
GI50 [38]: 9.03 µM
TGI [38]: > 100 µM
GI50 [39]: 9.84 µM
TGI [39]: 82.9 µM
GI50 [40]: 7.7 µM
TGI [40]: 51.7 µM
GI50 [41]: 2.21 µM
TGI [41]: 9.36 µM
GI50 [42]: 3.92 µM
TGI [42]: 25.2 µM
GI50 [58]: 12 µM
TGI [58]: 28.7 µM
GI50 [43]: 6.36 µM
TGI [43]: 30.3 µM
GI50 [44]: 3.35 µM
TGI [44]: 11.1 µM
GI50 [45]: 4.92 µM
TGI [45]: 41.2 µM
GI50 [46]: 5.55 µM
TGI [46]: 38.8 µM
GI50 [47]: 9.44 µM
TGI [47]: > 100 µM
GI50 [48]: 2.76 µM
TGI [48]: 9.81 µM
GI50 [49]: 3.31 µM
TGI [49]: 20.7 µM
GI50 [50]: 4.22 µM
TGI [50]: 43.4 µM
GI50 [51]: 5.61 µM
TGI [51]: 73.3 µM
GI50 [52]: 20.2 µM
TGI [52]: 63.6 µM
GI50 [53]: 4.15 µM
TGI [53]: 20.6 µM
GI50 [54]: 8.33 µM
TGI [54]: 69.1 µM
GI50 [55]: 3.83 µM
TGI [55]: 17.1 µM
GI50 [56]: 4.06 µM
TGI [56]: 31.2 µM

OCCSCCCSCCO
TGI [1]: > 100 µM
TGI [3]: > 100 µM
TGI [5]: > 100 µM
TGI [6]: > 100 µM
TGI [7]: > 100 µM
TGI [8]: > 100 µM
TGI [9]: > 100 µM
TGI [10]: > 100 µM
TGI [11]: > 100 µM
TGI [12]: > 100 µM
TGI [13]: 80.7 µM
TGI [14]: > 100 µM
TGI [15]: 98.8 µM
TGI [17]: > 100 µM
TGI [18]: > 100 µM
TGI [19]: > 100 µM
TGI [20]: > 100 µM
TGI [21]: > 100 µM
TGI [22]: > 100 µM
TGI [24]: > 100 µM
TGI [25]: > 100 µM
TGI [59]: > 100 µM
TGI [27]: > 100 µM
TGI [29]: > 100 µM
TGI [30]: > 100 µM
TGI [31]: > 100 µM
TGI [32]: > 100 µM
TGI [33]: > 100 µM
TGI [34]: > 100 µM
TGI [35]: > 100 µM
TGI [36]: > 100 µM
TGI [37]: > 100 µM
TGI [40]: > 100 µM
TGI [41]: > 100 µM
TGI [42]: > 100 µM
TGI [43]: > 100 µM
TGI [44]: > 100 µM
TGI [45]: > 100 µM
TGI [46]: > 100 µM
TGI [47]: > 100 µM
TGI [48]: > 100 µM
TGI [49]: > 100 µM
TGI [50]: > 100 µM
TGI [51]: > 100 µM
TGI [52]: > 100 µM
TGI [53]: > 100 µM
TGI [54]: > 100 µM
TGI [55]: > 100 µM
TGI [56]: > 100 µM
